{"source": "patent US9597326B2", "about": "(priority 2010, dated 2017)", "key": {"[1]": {"system": "cytokines (IFN-γ, IL-10, IL-12 p40, IL-1β, IL-5, IL-6, MCP-1, KC, TNF-α)", "assay_type": "in vivo, mice", "conditions": "IP; peak concentration over 24 h; FIG. 6"}, "human TLR7": {"target": "human TLR7 (Homo sapiens (Human), UniProt Q9NYK1)", "sequence (Q9NYK1 27-1049 limits assumed)": "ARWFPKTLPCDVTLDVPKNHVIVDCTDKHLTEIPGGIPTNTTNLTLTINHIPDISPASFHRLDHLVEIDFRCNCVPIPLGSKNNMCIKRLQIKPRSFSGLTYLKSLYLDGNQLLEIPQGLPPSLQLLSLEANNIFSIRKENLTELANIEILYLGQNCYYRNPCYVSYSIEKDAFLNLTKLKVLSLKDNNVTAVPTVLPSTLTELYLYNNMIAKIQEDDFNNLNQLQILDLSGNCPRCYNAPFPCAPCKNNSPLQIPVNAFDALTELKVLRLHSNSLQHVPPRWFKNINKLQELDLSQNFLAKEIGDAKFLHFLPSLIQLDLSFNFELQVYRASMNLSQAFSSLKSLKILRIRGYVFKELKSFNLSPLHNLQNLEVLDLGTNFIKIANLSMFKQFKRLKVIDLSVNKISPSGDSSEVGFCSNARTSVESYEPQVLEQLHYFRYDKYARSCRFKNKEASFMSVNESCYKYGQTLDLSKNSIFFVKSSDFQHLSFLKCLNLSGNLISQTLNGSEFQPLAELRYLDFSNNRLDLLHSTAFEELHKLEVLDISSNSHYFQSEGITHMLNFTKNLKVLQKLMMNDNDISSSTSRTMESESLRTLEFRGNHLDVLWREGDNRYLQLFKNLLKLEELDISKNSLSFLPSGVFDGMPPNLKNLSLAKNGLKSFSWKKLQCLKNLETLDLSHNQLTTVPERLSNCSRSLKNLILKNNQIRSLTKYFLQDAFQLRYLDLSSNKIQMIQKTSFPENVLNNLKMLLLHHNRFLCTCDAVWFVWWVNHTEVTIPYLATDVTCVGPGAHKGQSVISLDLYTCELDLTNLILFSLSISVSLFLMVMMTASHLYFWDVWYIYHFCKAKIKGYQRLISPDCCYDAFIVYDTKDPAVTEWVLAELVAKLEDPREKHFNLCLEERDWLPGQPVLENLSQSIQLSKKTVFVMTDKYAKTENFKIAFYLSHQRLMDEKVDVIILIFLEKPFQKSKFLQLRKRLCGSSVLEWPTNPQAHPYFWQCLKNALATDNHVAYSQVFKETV", "assay_type": "cell-based", "conditions": "HEK293 reporter; relative to resiquimod set to 100%"}}}
{"smiles": "CCOCc1nc2c(N)nc3ccccc3c2n1CC(C)(C)O", "note": "[R-848, resiquimod, reference compound]", "values": [{"measurement": "cytokine induction of IL-5 compared to peanut oil-control", "setting": "[1]", "value": "Neither administration of SMIP 28 nor R-848, compared to peanut oil-control, resulted in a cytokine induction of IL-5"}, {"measurement": "cytokines induced compared to peanut oil-control", "setting": "[1]", "value": "cytokine induction of IFN-γ, IL-10, IL-12 p40, IL-6, MCP-1, mKC, and TNF-α"}]}
{"smiles": "COc1ccc(CCc2cnc3c(N)nc4cc(C(C)(P(=O)(O)O)P(=O)(O)O)ccc4c3c2)c(C)c1", "note": "[Compound 19]", "values": [{"measurement": "EC50", "setting": "human TLR7", "value": 23800, "unit": "nM"}]}
{"smiles": "COc1ccc(CCc2cnc3c(N)nc4cc(C)ccc4c3c2)c(C)c1", "note": "[SMIP 28, 2-(4-methoxy-2-methylphenethyl)-8-methylbenzo[f][1,7]naphthyridin-5-amine]", "values": [{"measurement": "cytokine induction of IL-1β compared to R-848", "setting": "[1]", "value": "significantly greater cytokine induction of IL-1β"}, {"measurement": "cytokine induction of IL-5 compared to peanut oil-control", "setting": "[1]", "value": "Neither administration of SMIP 28 nor R-848, compared to peanut oil-control, resulted in a cytokine induction of IL-5"}, {"measurement": "cytokines induced compared to peanut oil-control", "setting": "[1]", "value": "cytokine induction of IFN-γ, IL-12 p40, IL-1β, IL-6, MCP-1, mKC, and TNF-α"}]}
